In assay [1] the target is T1, Recombinant human ULK1 (1-649) (Homo sapiens (Human), UniProt O75385). The experiment in a line: ULK1 ADP Glo kinase activity assay (MBP substrate). Conditions: 25° C., 40 minutes, read-out: ULK1 biochemical IC50. On the procedure: Recombinant human ULK1 (1-649) protein expressed in Sf9 insect cells was obtained from SignalChem (Vancouver, BC), catalog #U01-11G. Active kinase was purified via N-terminal GST tag to >85% purity.
ADP GLO Kinase Assay Reagents were obtained from Promega Corp (Madison, WI), catalog #V9104.
MBP (myelin basic protein) substrate, bovine, purified, was obtained from Sigma (St. Louis, MO), catalog #M1891.
ULK1 inhibitor potency was determined using the luminescent ADP Glo Kinase Assay (Promega), a universal ADP detection system that measures kinase activity by quantifying the amount of ADP produced during a kinase reaction. ULK1 kinase reactions are performed in a standard 96-well microplate (20 uL reaction volume) at 25° C. for 40 minutes in the presence or absence of the test compound (12-point dilution series starting at 10 uM). Addition of MBP substrate and ATP initiates the kinase reaction.
The standard ADP Glo assay is performed in two steps. In step one, following the kinase reaction, an equal volume of ADP-Glo™ Reagent (20 uL) is added to terminate the kinase reaction and deplete the remaining ATP. In the second step, the Kinase Detection Reagent (10 uL) is added to simultaneously convert ADP to ATP and allow the newly synthesized ATP to be measured using a luciferase/luciferin reaction. Step two of the ADP Glo assay is performed in a white 384-well plate (20 uL final volume). Thirty minutes after the addition of the Detection reagent, light generated from the luciferase reaction is measured (1 second exposure) using a microplate compatible luminometer (CLARIOstar, BMG Labtech).
Inhibition of ULK1 kinase activity is determined for each test compound by comparison to DMSO only control wells. Inhibitor IC50 was calculated by plotting the change in luminescence after 30 minutes (response) versus inhibitor concentration (in log molar) then applying the four-parameter variable slope curve fit (GraphPad Prism). Inhibition of ULK1 in biochemical assay is found in Table 3.
(In general: In ADP-Glo the light output rises with the ADP produced.)

Assay [2] concerns the target T1, Recombinant human ULK1 (1-649). The experiment in a line: ULK1 ADP Glo kinase activity assay, new method (ULKtide peptide substrate). The settings on record: 25° C., 40 minutes, read-out: ULK1 biochemical IC50. In outline: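 GST-tagged human ULK1 (1-649) from Sf9 cells was reacted with ULKtide peptide and ATP for 40 min at 25 °C across 12-point compound dilutions from 10 μM. ADP formed was quantified by ADP-Glo luminescence; IC50 came from four-parameter fits relative to DMSO controls.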

Each structure is given as a SMILES string.

T1 sequence (O75385 1-649): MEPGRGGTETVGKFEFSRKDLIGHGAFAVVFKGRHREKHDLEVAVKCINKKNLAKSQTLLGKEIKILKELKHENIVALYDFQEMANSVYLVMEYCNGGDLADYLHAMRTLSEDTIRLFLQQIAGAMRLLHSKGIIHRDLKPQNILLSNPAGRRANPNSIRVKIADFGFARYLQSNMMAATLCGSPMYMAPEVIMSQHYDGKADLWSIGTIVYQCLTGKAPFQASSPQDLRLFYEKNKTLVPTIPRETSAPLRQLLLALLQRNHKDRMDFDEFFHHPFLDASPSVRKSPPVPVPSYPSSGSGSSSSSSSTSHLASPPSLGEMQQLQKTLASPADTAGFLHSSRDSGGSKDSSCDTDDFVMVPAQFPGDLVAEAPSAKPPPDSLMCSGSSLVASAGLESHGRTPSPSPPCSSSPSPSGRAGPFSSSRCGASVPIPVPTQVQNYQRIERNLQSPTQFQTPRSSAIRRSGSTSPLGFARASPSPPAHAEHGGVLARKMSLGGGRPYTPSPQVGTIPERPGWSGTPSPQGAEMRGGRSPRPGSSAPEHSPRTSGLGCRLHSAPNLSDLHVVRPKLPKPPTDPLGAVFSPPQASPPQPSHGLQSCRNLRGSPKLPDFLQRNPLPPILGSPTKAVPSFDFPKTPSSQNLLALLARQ

By IC50 is commonly meant the concentration that gives 50% inhibition. Take `FC(F)(F)c1cnc(Nc2cc3c(cc2Cl)CNCC3)nc1-c1cc(-c2ncco2)cs1` [Example 18, 7-Chloro-N-(4-(4-(oxazol-2-yl)thiophen-2-yl)-5-(trifluoromethyl)pyrimidin-2-yl)-1,2,3,4-tetrahydroisoquinolin-6-amine]: the IC50 in assay [1] lay within 10 to 50 nM.
Same read-out and setting: the result for `CS(=O)(=O)c1csc(-c2nc(Nc3cc4c(cc3Cl)CN(C3CC3)CC4)ncc2C(F)(F)F)c1` [Example 107, 7-chloro-2-cyclopropyl-N-[4-(4-methylsulfonyl-2-thienyl)-5-(trifluoromethyl)pyrimidin-2-yl]-3,4-dihydro-1H-isoquinolin-6-amine] reads 10 to 50 nM; that for `CCc1cc2c(cc1Nc1ncc(C(F)(F)F)c(-c3cc(S(C)(=O)=O)cs3)n1)CNC2` [Example 72, 6-ethyl-N-(4-(4-(methylsulfonyl)thiophen-2-yl)-5-(trifluoromethyl)pyrimidin-2-yl)isoindolin-5-amine], no more than 10 nM; that for `COCCOc1sc(-c2nc(Nc3cc4c(cc3Cl)CN(C)CC4)ncc2C(F)(F)F)cc1S(C)(=O)=O` [Example 57, 7-chloro-N-(4-(5-(2-methoxyethoxy)-4-(methylsulfonyl)thiophen-2-yl)-5-(trifluoromethyl)pyrimidin-2-yl)-2-methyl-1,2,3,4-tetrahydroisoquinolin-6-amine], no more than 10 nM.
Same read-out and setting: to `CN1CCc2cc(Nc3ncc(C(F)(F)F)c(-c4cc(S(C)(=O)=O)c(C(=O)N5CCOCC5)s4)n3)c(Cl)cc2C1` [Example 61, (5-(2-((7-chloro-2-methyl-1,2,3,4-tetrahydroisoquinolin-6-yl)amino)-5-(trifluoromethyl)pyrimidin-4-yl)-3-(methylsulfonyl)thiophen-2-yl)(morpholino)methanone] belongs 100 to 500 nM; to `CC1(C)NC(=O)c2cc(-c3nc(Nc4cc5c(cc4Cl)CNCC5)ncc3C(F)(F)F)sc21` [Example 40, 2-(2-((7-chloro-1,2,3,4-tetrahydroisoquinolin-6-yl)amino)-5-(trifluoromethyl)pyrimidin-4-yl)-6,6-dimethyl-5,6-dihydro-4H-thieno[2,3-c]pyrrol-4-one], no more than 10 nM.
As for `C[C@H]1CN(c2ccc(Nc3ncc(C(F)(F)F)c(-c4cc5c(s4)C(=O)N(C4COC4)CCS5(=O)=O)n3)c(C3CC3)c2)C[C@H](C)N1C` [Example 351, 7-(2-((2-cyclopropyl-4-((3S,5S)-3,4,5-trimethylpiperazin-1-yl)phenyl)amino)-5-(trifluoromethyl)pyrimidin-4-yl)-4-(oxetan-3-yl)-3,4-dihydrothieno[2,3-f][1,4]thiazepin-5(2H)-one 1,1-dioxide], in assay [2], the IC50 was 5 to 10 nM.
Same read-out and setting: the result for `CN1CCc2cc(Nc3ncc(C(F)(F)F)c(-c4cc5c(s4)C(=O)N(C4CC4)CCS5(=O)=O)n3)c(Cl)cc2C1` [Example 167, 7-(2-((7-chloro-2-methyl-1,2,3,4-tetrahydroisoquinolin-6-yl)amino)-5-(trifluoromethyl)pyrimidin-4-yl)-4-cyclopropyl-3,4-dihydrothieno[2,3-f][1,4]thiazepin-5(2H)-one 1,1-dioxide] reads no more than 5 nM; that for `CCc1cc2c(cc1Nc1ncc(C(F)(F)F)c(-c3cc4c(s3)C(=O)N(C3COC3)CCS4(=O)=O)n1)CCN(CC1CC1)C2` [Example 274, 7-(2-((2-(cyclopropylmethyl)-7-ethyl-1,2,3,4-tetrahydroisoquinolin-6-yl)amino)-5-(trifluoromethyl)pyrimidin-4-yl)-4-(oxetan-3-yl)-3,4-dihydrothieno[2,3-f][1,4]thiazepin-5(2H)-one 1,1-dioxide], no more than 5 nM; that for `CCN1CCc2cc(Nc3ncc(C(F)(F)F)c(-c4cc5c(s4)C(=O)N(C4COC4)CCS5(=O)=O)n3)c(C3CC3)cc2C1` [Example 244, 7-(2-((7-cyclopropyl-2-ethyl-1,2,3,4-tetrahydroisoquinolin-6-yl)amino)-5-(trifluoromethyl)pyrimidin-4-yl)-4-(oxetan-3-yl)-3,4-dihydrothieno[2,3-f][1,4]thiazepin-5(2H)-one 1,1-dioxide], no more than 5 nM.
As for `CCN1CCC(c2ccc(Nc3ncc(C(F)(F)F)c(-c4cc5c(s4)C(=O)N(C4CC4)CCS5(=O)=O)n3)c(C3CC3)c2)CC1` [Example 253, 4-cyclopropyl-7-(2-((2-cyclopropyl-4-(1-ethylpiperidin-4-yl)phenyl)amino)-5-(trifluoromethyl)pyrimidin-4-yl)-3,4-dihydrothieno[2,3-f][1,4]thiazepin-5(2H)-one 1,1-dioxide], the IC50 in assay [2] is no more than 5 nM.
Consider `CC(C)c1cc2c(cc1Nc1ncc(C(F)(F)F)c(-c3cc4c(s3)C(=O)N(C3CC3)CCS4(=O)=O)n1)CCNC2` [Example 263, 4-cyclopropyl-7-(2-((7-isopropyl-1,2,3,4-tetrahydroisoquinolin-6-yl)amino)-5-(trifluoromethyl)pyrimidin-4-yl)-3,4-dihydrothieno[2,3-f][1,4]thiazepin-5(2H)-one 1,1-dioxide], for which, in assay [2], the IC50 was no more than 5 nM.
Same read-out and setting: to `O=C1c2sc(-c3nc(Nc4cc5c(cc4C4CC4)CNCC5)ncc3C(F)(F)F)cc2S(=O)(=O)CCN1C1COC1` [Example 219, 7-(2-((7-cyclopropyl-1,2,3,4-tetrahydroisoquinolin-6-yl)amino)-5-(trifluoromethyl)pyrimidin-4-yl)-4-(oxetan-3-yl)-3,4-dihydrothieno[2,3-f][1,4]thiazepin-5(2H)-one 1,1-dioxide] belongs no more than 5 nM.
As for `CCN1CCN(c2ccc(Nc3ncc(C(F)(F)F)c(-c4cc5c(s4)C(=O)N(C)CCS5(=O)=O)n3)c(Cl)c2)CC1` [Example 195, 7-(2-((2-chloro-4-(4-ethylpiperazin-1-yl)phenyl)amino)-5-(trifluoromethyl)pyrimidin-4-yl)-4-methyl-3,4-dihydrothieno[2,3-f][1,4]thiazepin-5(2H)-one 1,1-dioxide], the half-maximal inhibitory concentration (IC50) in assay [2] is no more than 5 nM.
The same measure, in the same setting: the result for `CN1CCN(c2ccc(Nc3ncc(C(F)(F)F)c(-c4cc5c(s4)C(=O)N(C4CC4)CCS5(=O)=O)n3)c(C3CC3)c2)C[C@@H]1CO` [Example 352, (R)-4-cyclopropyl-7-(2-((2-cyclopropyl-4-(3-(hydroxymethyl)-4-methylpiperazin-1-yl)phenyl)amino)-5-(trifluoromethyl)pyrimidin-4-yl)-3,4-dihydrothieno[2,3-f][1,4]thiazepin-5(2H)-one 1,1-dioxide] reads no more than 5 nM.
Same read-out and setting: to `O=C1c2sc(-c3nc(Nc4ccc(C5CCN(CC6CC6)CC5)cc4C4CC4)ncc3C(F)(F)F)cc2S(=O)(=O)CCN1C1CC1` [Example 241, 4-cyclopropyl-7-(2-((2-cyclopropyl-4-(1-(cyclopropylmethyl)piperidin-4-yl)phenyl)amino)-5-(trifluoromethyl)pyrimidin-4-yl)-3,4-dihydrothieno[2,3-f][1,4]thiazepin-5(2H)-one 1,1-dioxide] belongs no more than 5 nM; to `CN1CCc2cc(Nc3ncc(C(F)(F)F)c(-c4cc5c(s4)C(=O)NCCS5(=O)=O)n3)c(F)cc2C1` [Example 139, 7-(2-((7-fluoro-2-methyl-1,2,3,4-tetrahydroisoquinolin-6-yl)amino)-5-(trifluoromethyl)pyrimidin-4-yl)-3,4-dihydrothieno[2,3-f][1,4]thiazepin-5(2H)-one 1,1-dioxide], no more than 5 nM; to `CCc1cc2c(cc1Nc1ncc(C(F)(F)F)c(-c3cc4c(s3)C(=O)N(C3CC3)CCS4(=O)=O)n1)CCN(CC)C2` [Example 228, 4-cyclopropyl-7-(2-((2,7-diethyl-1,2,3,4-tetrahydroisoquinolin-6-yl)amino)-5-(trifluoromethyl)pyrimidin-4-yl)-3,4-dihydrothieno[2,3-f][1,4]thiazepin-5(2H)-one 1,1-dioxide], no more than 5 nM.
For the molecule `CCc1cc(N2CCN[C@@H](C)C2)ccc1Nc1ncc(C(F)(F)F)c(-c2cc3c(s2)C(=O)N(C2COC2)CCS3(=O)=O)n1` [Example 354, (S)-7-(2-((2-ethyl-4-(3-methylpiperazin-1-yl)phenyl)amino)-5-(trifluoromethyl)pyrimidin-4-yl)-4-(oxetan-3-yl)-3,4-dihydrothieno[2,3-f][1,4]thiazepin-5(2H)-one 1,1-dioxide], the IC50 in assay [2] is no more than 5 nM.
Still for that read-out and setting: to `CN1[C@@H]2CC[C@H]1CN(c1ccc(Nc3ncc(C(F)(F)F)c(-c4cc5c(s4)C(=O)N(C4CC4)CCS5(=O)=O)n3)c(C3CC3)c1)C2` [Example 313, 4-cyclopropyl-7-(2-((2-cyclopropyl-4-((1R,5S)-8-methyl-3,8-diazabicyclo[3.2.1]octan-3-yl)phenyl)amino)-5-(trifluoromethyl)pyrimidin-4-yl)-3,4-dihydrothieno[2,3-f][1,4]thiazepin-5(2H)-one 1,1-dioxide] belongs no more than 5 nM.

The values above are taken from patent publication US20250144094A1 (Erasca, Inc., priority 2021, published 2025).
